From publication PMC10682951, “Structure-function and rational design of a spider toxin Ssp1a at human voltage-gated sodium channel subtypes” (Frontiers in Pharmacology, 2023) come the findings set out here.

The structures appear in SMILES notation. Bridge positions count the residues as written; N and C are the ends. Peptide text beside a SMILES is read from it.

Common to all, as to type: cell-based
The target of one test is T1, hNaV1.3 (Homo sapiens, UniProt Q9NY46).
T1 construct: host or cells: HEK293
In words: Automated whole-cell patch-clamp (QPatch 16X), hNaV1.3. The conditions noted are these: HEK293 cells expressing hNaV1.3 + β1 subunit; QPatch 16X; holding −80 mV, step to 0 mV; peptide incubated 2 min; 0.1% BSA; mean, SEM and n (3-12). The procedure:
(§1) Human embryonic kidney 293 (HEK293) cells stably expressing recombinant hNaV1.2, hNaV1.3 and hNaV1.7 and the β1 auxiliary subunit (Scottish Biomedical Drug Discovery, Glasgow, UK) were cultured in Minimal Essential medium (MEM) (Sigma-Aldrich, MO, United States) supplemented with 10% v/v FBS-New Zealand origin (Assay Matrix), 2 mM L-glutamine and selection antibiotics as per manufacturer’s recommendation. The HEK293 cells heterologously expressing mNaV1.7 and F813G-mNaV1.7 were generously provided by Prof Irina Vetter and were cultured in Minimal Essential medium (MEM) (Sigma-Aldrich, MO, United States) supplemented with 10% v/v FBS-New Zealand origin (Assay Matrix), 2 mM L-glutamine and hygromycin 100 μg/mL.
(§2) NaV channel currents from HEK293 cells stably expressing NaV subtypes and the β1 auxiliary subunit were recorded using an automated whole-cell patch clamp system QPatch 16X (Sophion Bioscience A/S, Ballerup, Denmark). As per the manufacturer’s guidelines, the cells were cultured for 48 h to achieve ∼80% confluency, detached using Detachin (Genlantis) and resuspended to 5 × 10^6 cells/mL in serum free media [CHO-cell SFM (Life Technologies), 25 mM HEPES and 100 U/mL penicillin/streptomycin]. The extracellular solution comprised (in mM) 1 CaCl2, 1 MgCl2, 5 HEPES, 3 KCl, 140 NaCl and 20 TEA-Cl, with the pH adjusted to 7.3 with NaOH. The intracellular solution comprised (in mM) 140 CsF, 1 EGTA, 5 CsOH, 10 HEPES and 10 NaCl, with the pH adjusted to 7.3 with CsOH. The osmolarity of both solutions were adjusted to 320 mOsm with sucrose. Compounds were prepared in extracellular solution containing 0.1% bovine serum albumin (Sigma-Aldrich). To obtain the dose-response curves, cells were maintained at a holding potential −80 mV and Na^+ currents were elicited by […] voltage steps to 0 mV from a −120 mV conditioning pulse applied for […]. Increasing concentrations of the peptide were incubated with the cells at the holding potential for 2 min before the voltage protocol was applied.
(§3) The experimental data were analysed using QPatch Assay software v5.6.4 and GraphPad Prism 7.0 using a four-parameter Hill equation [Y = Bottom + (Top—Bottom)/(1 + 10^(Log IC50—X)* Hillslope)] to fit concentration response curves by non-linear regression analysis and Student’s t-test. Data are presented as means ± standard error of mean (SEM) with number of independent experiments stated and p < 0.05 is considered statistically significant. Statistically insignificant shift in the activity is denoted by “little” while small but statistically significant shift in the activity is denoted by “slight” throughout the manuscript.

The target in a further test is T2, hNaV1.2 (Homo sapiens, UniProt Q99250).
T2 construct: host or cells: HEK293
Description: Automated whole-cell patch-clamp (QPatch 16X), hNaV1.2. The conditions noted are these: HEK293 cells expressing hNaV1.2 + β1 subunit; QPatch 16X; holding −80 mV, step to 0 mV; peptide incubated 2 min; 0.1% BSA; mean, SEM and n (2-7). On the procedure: as §1, §2, §3

The next test addresses T3, hNaV1.7 (Homo sapiens, UniProt Q15858).
T3 construct: host or cells: HEK293
Description: Automated whole-cell patch-clamp (QPatch 16X), hNaV1.7. The conditions noted are these: HEK293 cells expressing hNaV1.7 + β1 subunit; QPatch 16X; holding −80 mV, step to 0 mV; peptide incubated 2 min; 0.1% BSA; mean, SEM and n (3-9). On the procedure: as §1, §2, §3
(In general: In patch-clamp work, channel activity is measured electrically.)

Broadly, the IC50 is the midpoint of a concentration-inhibition curve.

T3 sequence (Q15858 whole entry): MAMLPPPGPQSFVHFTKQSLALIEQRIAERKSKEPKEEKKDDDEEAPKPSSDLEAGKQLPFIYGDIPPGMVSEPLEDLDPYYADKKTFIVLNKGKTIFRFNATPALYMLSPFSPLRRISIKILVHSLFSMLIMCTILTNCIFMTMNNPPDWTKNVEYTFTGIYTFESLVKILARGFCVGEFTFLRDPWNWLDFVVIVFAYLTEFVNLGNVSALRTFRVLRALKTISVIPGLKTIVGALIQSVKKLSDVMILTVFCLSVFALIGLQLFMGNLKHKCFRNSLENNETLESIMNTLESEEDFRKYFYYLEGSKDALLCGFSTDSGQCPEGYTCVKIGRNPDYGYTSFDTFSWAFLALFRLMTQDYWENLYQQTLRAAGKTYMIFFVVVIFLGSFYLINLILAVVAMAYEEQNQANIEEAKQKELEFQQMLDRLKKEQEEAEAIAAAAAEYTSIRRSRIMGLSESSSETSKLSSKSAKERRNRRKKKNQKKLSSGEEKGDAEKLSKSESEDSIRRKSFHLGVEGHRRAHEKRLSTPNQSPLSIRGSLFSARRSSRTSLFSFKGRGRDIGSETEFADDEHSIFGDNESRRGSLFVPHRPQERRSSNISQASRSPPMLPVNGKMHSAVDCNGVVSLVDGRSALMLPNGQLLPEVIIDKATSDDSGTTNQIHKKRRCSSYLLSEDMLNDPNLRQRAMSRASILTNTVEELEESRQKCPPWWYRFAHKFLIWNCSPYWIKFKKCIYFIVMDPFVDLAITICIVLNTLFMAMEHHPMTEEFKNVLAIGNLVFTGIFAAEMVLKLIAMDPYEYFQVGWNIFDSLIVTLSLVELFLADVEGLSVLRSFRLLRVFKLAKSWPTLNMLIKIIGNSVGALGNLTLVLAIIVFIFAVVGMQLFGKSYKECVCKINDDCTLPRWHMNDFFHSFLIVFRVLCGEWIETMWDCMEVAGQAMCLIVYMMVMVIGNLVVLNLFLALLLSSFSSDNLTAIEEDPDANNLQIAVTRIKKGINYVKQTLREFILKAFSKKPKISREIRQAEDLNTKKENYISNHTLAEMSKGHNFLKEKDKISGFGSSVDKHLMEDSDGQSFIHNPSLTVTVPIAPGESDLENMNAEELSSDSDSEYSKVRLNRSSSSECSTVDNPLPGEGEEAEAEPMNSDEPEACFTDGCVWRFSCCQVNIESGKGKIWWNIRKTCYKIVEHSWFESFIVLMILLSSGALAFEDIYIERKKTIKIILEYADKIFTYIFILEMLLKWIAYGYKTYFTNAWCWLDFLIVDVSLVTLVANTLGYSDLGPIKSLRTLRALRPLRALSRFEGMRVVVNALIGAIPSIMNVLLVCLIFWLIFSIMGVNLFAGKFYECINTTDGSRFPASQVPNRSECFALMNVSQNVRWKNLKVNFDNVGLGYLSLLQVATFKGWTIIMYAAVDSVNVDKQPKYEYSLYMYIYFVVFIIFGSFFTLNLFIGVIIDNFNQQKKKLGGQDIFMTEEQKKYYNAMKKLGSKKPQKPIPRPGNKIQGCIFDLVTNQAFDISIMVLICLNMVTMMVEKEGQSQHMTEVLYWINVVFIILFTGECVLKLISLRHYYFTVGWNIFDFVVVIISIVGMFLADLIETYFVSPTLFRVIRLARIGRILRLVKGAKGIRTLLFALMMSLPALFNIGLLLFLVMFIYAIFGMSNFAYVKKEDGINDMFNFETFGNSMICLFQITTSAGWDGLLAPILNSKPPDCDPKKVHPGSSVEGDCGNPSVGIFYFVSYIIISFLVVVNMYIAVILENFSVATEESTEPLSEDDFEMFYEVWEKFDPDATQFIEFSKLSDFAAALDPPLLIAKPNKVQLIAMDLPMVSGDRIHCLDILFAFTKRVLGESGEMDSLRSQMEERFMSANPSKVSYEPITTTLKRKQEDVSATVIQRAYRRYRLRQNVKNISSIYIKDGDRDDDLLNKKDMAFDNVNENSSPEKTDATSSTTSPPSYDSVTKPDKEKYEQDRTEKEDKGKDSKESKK
T3 sequence (Q07699 19-218, further chain): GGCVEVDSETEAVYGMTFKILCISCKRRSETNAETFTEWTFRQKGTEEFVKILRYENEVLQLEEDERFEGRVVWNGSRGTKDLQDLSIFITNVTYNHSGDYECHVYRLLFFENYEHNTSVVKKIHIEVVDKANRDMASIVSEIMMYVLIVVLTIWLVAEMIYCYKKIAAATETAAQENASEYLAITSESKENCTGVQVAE
T1 sequence (Q9NY46 whole entry): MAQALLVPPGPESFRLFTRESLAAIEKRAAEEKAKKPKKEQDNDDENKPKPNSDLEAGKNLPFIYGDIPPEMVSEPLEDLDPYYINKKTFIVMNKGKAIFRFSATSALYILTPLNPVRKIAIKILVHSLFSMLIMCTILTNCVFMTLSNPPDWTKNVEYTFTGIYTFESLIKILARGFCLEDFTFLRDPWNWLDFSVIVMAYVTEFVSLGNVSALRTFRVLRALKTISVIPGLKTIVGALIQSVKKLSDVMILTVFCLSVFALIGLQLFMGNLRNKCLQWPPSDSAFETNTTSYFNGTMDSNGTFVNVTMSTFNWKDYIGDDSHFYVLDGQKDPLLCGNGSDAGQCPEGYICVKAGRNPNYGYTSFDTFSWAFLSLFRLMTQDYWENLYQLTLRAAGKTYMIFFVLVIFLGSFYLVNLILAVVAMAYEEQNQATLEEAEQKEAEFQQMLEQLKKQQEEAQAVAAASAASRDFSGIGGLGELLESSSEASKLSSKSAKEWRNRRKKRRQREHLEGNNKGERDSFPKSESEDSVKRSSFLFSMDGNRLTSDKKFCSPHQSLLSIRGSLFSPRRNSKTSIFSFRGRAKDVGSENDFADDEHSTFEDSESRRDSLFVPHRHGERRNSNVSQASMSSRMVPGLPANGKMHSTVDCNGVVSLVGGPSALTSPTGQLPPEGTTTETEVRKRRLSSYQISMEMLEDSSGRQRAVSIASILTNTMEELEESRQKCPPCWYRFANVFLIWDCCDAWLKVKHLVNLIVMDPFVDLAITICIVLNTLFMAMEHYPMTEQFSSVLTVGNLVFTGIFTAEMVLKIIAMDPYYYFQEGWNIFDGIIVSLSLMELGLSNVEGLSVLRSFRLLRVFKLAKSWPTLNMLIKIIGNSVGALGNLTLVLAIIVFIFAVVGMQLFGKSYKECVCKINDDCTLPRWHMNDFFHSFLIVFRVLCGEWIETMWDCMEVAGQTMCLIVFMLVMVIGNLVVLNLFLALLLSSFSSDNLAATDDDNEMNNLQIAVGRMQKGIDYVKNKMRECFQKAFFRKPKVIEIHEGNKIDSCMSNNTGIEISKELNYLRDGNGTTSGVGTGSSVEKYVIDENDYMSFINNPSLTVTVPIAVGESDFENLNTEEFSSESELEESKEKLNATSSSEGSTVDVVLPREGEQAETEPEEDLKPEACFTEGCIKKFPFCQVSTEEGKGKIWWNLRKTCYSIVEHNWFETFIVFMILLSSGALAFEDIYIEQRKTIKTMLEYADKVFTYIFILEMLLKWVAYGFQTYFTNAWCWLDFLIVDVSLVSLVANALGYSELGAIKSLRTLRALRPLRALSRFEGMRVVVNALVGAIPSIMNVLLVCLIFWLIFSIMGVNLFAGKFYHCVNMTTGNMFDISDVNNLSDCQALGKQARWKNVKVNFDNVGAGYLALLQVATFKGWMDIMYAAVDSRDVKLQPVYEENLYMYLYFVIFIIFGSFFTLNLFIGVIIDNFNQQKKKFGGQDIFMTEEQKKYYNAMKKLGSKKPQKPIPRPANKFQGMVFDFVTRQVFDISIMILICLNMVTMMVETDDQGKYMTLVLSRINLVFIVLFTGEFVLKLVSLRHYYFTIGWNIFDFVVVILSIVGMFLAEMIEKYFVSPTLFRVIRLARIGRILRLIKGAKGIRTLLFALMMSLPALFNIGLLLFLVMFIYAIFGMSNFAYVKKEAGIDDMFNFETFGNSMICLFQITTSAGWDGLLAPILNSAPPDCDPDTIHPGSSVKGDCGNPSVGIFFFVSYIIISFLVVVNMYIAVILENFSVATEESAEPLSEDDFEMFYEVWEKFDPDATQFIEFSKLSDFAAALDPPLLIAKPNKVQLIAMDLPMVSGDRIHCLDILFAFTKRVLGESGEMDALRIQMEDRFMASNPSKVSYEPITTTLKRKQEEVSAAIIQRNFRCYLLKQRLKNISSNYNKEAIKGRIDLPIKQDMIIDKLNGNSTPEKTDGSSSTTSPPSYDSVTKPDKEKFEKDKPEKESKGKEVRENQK
T1 sequence (Q07699 19-218, further chain): as the sequence (Q07699 19-218, further chain) above

In the case of `CC(C)C[C@H](NC(=O)[C@H](Cc1ccc(O)cc1)NC(=O)[C@H](Cc1ccc(O)cc1)NC(=O)[C@H](CCCNC(=N)N)NC(=O)[C@@H]1CSSC[C@@H]2NC(=O)[C@H](CCCCN)NC(=O)[C@H](CC(N)=O)NC(=O)[C@H](CC(N)=O)NC(=O)[C@H](CC(N)=O)NC(=O)[C@@H]3CCCN3C(=O)[C@H](CC(=O)O)NC(=O)[C@@H]3CSSC[C@H](NC(=O)[C@H](C(C)C)NC(=O)[C@H](Cc4ccc(O)cc4)NC(=O)CNC(=O)[C@H](CCC(=O)O)NC(=O)[C@H](CSSC[C@H](NC(=O)CNC(=O)CN)C(=O)N[C@@H](CC(C)C)C(=O)NCC(=O)N[C@@H](Cc4c[nH]c5ccccc45)C(=O)N[C@@H](Cc4ccccc4)C(=O)N[C@@H](CO)C(=O)NCC(=O)N3)NC2=O)C(=O)N[C@@H](Cc2c[nH]cn2)C(=O)N[C@@H](Cc2c[nH]c3ccccc23)C(=O)N[C@@H](CCCCN)C(=O)N[C@@H](Cc2ccc(O)cc2)C(=O)N2CCC[C@H]2C(=O)N[C@@H](Cc2c[nH]c3ccccc23)C(=O)N1)C(=O)O` [D1G/D32Y] (H-GGCLGWFSGCDPNNNKCCEGYVCHWKYPWCRYYL-OH; disulfide 3-18, 10-23, 17-30), the figures for the concentration for half-maximal inhibition (IC50) on hNaV1.3, at hNaV1.2 and on hNaV1.7 were 0.111 µM, 0.086 µM and 0.091 µM, respectively.
Taken in the same sequence, the figures for `CC(C)C[C@H](NC(=O)[C@H](CC(=O)O)NC(=O)[C@H](Cc1ccc(O)cc1)NC(=O)[C@H](CCCNC(=N)N)NC(=O)[C@@H]1CSSC[C@@H]2NC(=O)[C@H](CCCCN)NC(=O)[C@H](CC(N)=O)NC(=O)[C@H](CC(N)=O)NC(=O)[C@H](CC(N)=O)NC(=O)[C@@H]3CCCN3C(=O)[C@H](CC(=O)O)NC(=O)[C@@H]3CSSC[C@H](NC(=O)[C@H](C(C)C)NC(=O)[C@H](Cc4ccc(O)cc4)NC(=O)CNC(=O)[C@H](CCC(=O)O)NC(=O)[C@H](CSSC[C@H](NC(=O)CNC(=O)CN)C(=O)N[C@@H](CC(C)C)C(=O)NCC(=O)N[C@@H](Cc4c[nH]c5ccccc45)C(=O)N[C@@H](Cc4ccccc4)C(=O)N[C@@H](CO)C(=O)NCC(=O)N3)NC2=O)C(=O)N[C@@H](Cc2c[nH]cn2)C(=O)N[C@@H](Cc2c[nH]c3ccccc23)C(=O)N[C@@H](CCCCN)C(=O)N[C@@H](Cc2ccc(O)cc2)C(=O)N2CCC[C@H]2C(=O)N[C@@H](Cc2c[nH]c3ccccc23)C(=O)N1)C(=O)O` [D1G] were 0.499 µM, 0.192 µM and 0.307 µM.
Taken in the same sequence, the figures for `CC(C)C[C@H](NC(=O)[C@H](CC(=O)O)NC(=O)[C@H](Cc1ccc(O)cc1)NC(=O)[C@H](CCCNC(=N)N)NC(=O)[C@@H]1CSSC[C@@H]2NC(=O)[C@H](CCCCN)NC(=O)[C@H](CC(N)=O)NC(=O)[C@H](CC(N)=O)NC(=O)[C@H](CC(N)=O)NC(=O)[C@@H]3CCCN3C(=O)[C@H](CC(=O)O)NC(=O)[C@@H]3CSSC[C@H](NC(=O)[C@H](C(C)C)NC(=O)[C@H](Cc4ccc(O)cc4)NC(=O)CNC(=O)[C@H](CCC(=O)O)NC(=O)[C@H](CSSC[C@H](NC(=O)[C@H](CCCCN)NC(=O)CN)C(=O)N[C@@H](CC(C)C)C(=O)NCC(=O)N[C@@H](Cc4c[nH]c5ccccc45)C(=O)N[C@@H](Cc4ccccc4)C(=O)N[C@@H](CO)C(=O)NCC(=O)N3)NC2=O)C(=O)N[C@@H](Cc2c[nH]cn2)C(=O)N[C@@H](Cc2c[nH]c3ccccc23)C(=O)N[C@@H](CCCCN)C(=O)N[C@@H](Cc2ccc(O)cc2)C(=O)N2CCC[C@H]2C(=O)N[C@@H](Cc2c[nH]c3ccccc23)C(=O)N1)C(=O)O` [D1K] were 0.196 µM, 0.097 µM and 0.24 µM.
For `CC(C)C[C@H](NC(=O)[C@H](C)NC(=O)[C@H](Cc1ccc(O)cc1)NC(=O)[C@H](CCCNC(=N)N)NC(=O)[C@@H]1CSSC[C@@H]2NC(=O)[C@H](CCCCN)NC(=O)[C@H](CC(N)=O)NC(=O)[C@H](CC(N)=O)NC(=O)[C@H](CC(N)=O)NC(=O)[C@@H]3CCCN3C(=O)[C@H](CC(=O)O)NC(=O)[C@@H]3CSSC[C@H](NC(=O)[C@H](C(C)C)NC(=O)[C@H](Cc4ccc(O)cc4)NC(=O)CNC(=O)[C@H](CCC(=O)O)NC(=O)[C@H](CSSC[C@H](NC(=O)[C@H](CC(=O)O)NC(=O)CN)C(=O)N[C@@H](CC(C)C)C(=O)NCC(=O)N[C@@H](Cc4c[nH]c5ccccc45)C(=O)N[C@@H](Cc4ccccc4)C(=O)N[C@@H](CO)C(=O)NCC(=O)N3)NC2=O)C(=O)N[C@@H](Cc2c[nH]cn2)C(=O)N[C@@H](Cc2c[nH]c3ccccc23)C(=O)N[C@@H](CCCCN)C(=O)N[C@@H](Cc2ccc(O)cc2)C(=O)N2CCC[C@H]2C(=O)N[C@@H](Cc2c[nH]c3ccccc23)C(=O)N1)C(=O)O` [D32A] the same measures were 0.221 µM, 0.11 µM and 0.118 µM.
For the compound `CC(C)C[C@H](NC(=O)[C@H](Cc1ccccc1)NC(=O)[C@H](Cc1ccc(O)cc1)NC(=O)[C@H](CCCNC(=N)N)NC(=O)[C@@H]1CSSC[C@@H]2NC(=O)[C@H](CCCCN)NC(=O)[C@H](CC(N)=O)NC(=O)[C@H](CC(N)=O)NC(=O)[C@H](CC(N)=O)NC(=O)[C@@H]3CCCN3C(=O)[C@H](CC(=O)O)NC(=O)[C@@H]3CSSC[C@H](NC(=O)[C@H](C(C)C)NC(=O)[C@H](Cc4ccc(O)cc4)NC(=O)CNC(=O)[C@H](CCC(=O)O)NC(=O)[C@H](CSSC[C@H](NC(=O)[C@H](CC(=O)O)NC(=O)CN)C(=O)N[C@@H](CC(C)C)C(=O)NCC(=O)N[C@@H](Cc4c[nH]c5ccccc45)C(=O)N[C@@H](Cc4ccccc4)C(=O)N[C@@H](CO)C(=O)NCC(=O)N3)NC2=O)C(=O)N[C@@H](Cc2c[nH]cn2)C(=O)N[C@@H](Cc2c[nH]c3ccccc23)C(=O)N[C@@H](CCCCN)C(=O)N[C@@H](Cc2ccc(O)cc2)C(=O)N2CCC[C@H]2C(=O)N[C@@H](Cc2c[nH]c3ccccc23)C(=O)N1)C(=O)O` [D32F], the IC50 at hNaV1.3 worked out at 0.162 µM; at hNaV1.2, 0.219 µM; at hNaV1.7, 0.203 µM.
On to `CC(C)C[C@H](NC(=O)[C@H](CCCCN)NC(=O)[C@H](Cc1ccc(O)cc1)NC(=O)[C@H](CCCNC(=N)N)NC(=O)[C@@H]1CSSC[C@@H]2NC(=O)[C@H](CCCCN)NC(=O)[C@H](CC(N)=O)NC(=O)[C@H](CC(N)=O)NC(=O)[C@H](CC(N)=O)NC(=O)[C@@H]3CCCN3C(=O)[C@H](CC(=O)O)NC(=O)[C@@H]3CSSC[C@H](NC(=O)[C@H](C(C)C)NC(=O)[C@H](Cc4ccc(O)cc4)NC(=O)CNC(=O)[C@H](CCC(=O)O)NC(=O)[C@H](CSSC[C@H](NC(=O)[C@H](CC(=O)O)NC(=O)CN)C(=O)N[C@@H](CC(C)C)C(=O)NCC(=O)N[C@@H](Cc4c[nH]c5ccccc45)C(=O)N[C@@H](Cc4ccccc4)C(=O)N[C@@H](CO)C(=O)NCC(=O)N3)NC2=O)C(=O)N[C@@H](Cc2c[nH]cn2)C(=O)N[C@@H](Cc2c[nH]c3ccccc23)C(=O)N[C@@H](CCCCN)C(=O)N[C@@H](Cc2ccc(O)cc2)C(=O)N2CCC[C@H]2C(=O)N[C@@H](Cc2c[nH]c3ccccc23)C(=O)N1)C(=O)O` [D32K], for which the IC50 on hNaV1.3 worked out at 0.098 µM; at hNaV1.2, 0.075 µM; at hNaV1.7 it was 0.086 µM.
With `CC(C)C[C@H](NC(=O)[C@H](CO)NC(=O)[C@H](Cc1ccc(O)cc1)NC(=O)[C@H](CCCNC(=N)N)NC(=O)[C@@H]1CSSC[C@@H]2NC(=O)[C@H](CCCCN)NC(=O)[C@H](CC(N)=O)NC(=O)[C@H](CC(N)=O)NC(=O)[C@H](CC(N)=O)NC(=O)[C@@H]3CCCN3C(=O)[C@H](CC(=O)O)NC(=O)[C@@H]3CSSC[C@H](NC(=O)[C@H](C(C)C)NC(=O)[C@H](Cc4ccc(O)cc4)NC(=O)CNC(=O)[C@H](CCC(=O)O)NC(=O)[C@H](CSSC[C@H](NC(=O)[C@H](CC(=O)O)NC(=O)CN)C(=O)N[C@@H](CC(C)C)C(=O)NCC(=O)N[C@@H](Cc4c[nH]c5ccccc45)C(=O)N[C@@H](Cc4ccccc4)C(=O)N[C@@H](CO)C(=O)NCC(=O)N3)NC2=O)C(=O)N[C@@H](Cc2c[nH]cn2)C(=O)N[C@@H](Cc2c[nH]c3ccccc23)C(=O)N[C@@H](CCCCN)C(=O)N[C@@H](Cc2ccc(O)cc2)C(=O)N2CCC[C@H]2C(=O)N[C@@H](Cc2c[nH]c3ccccc23)C(=O)N1)C(=O)O` [D32S], the figures for the IC50 on hNaV1.3, on hNaV1.2 and on hNaV1.7 were 0.137 µM, 0.097 µM and 0.101 µM, respectively.
